# Test results taken from patent US20210275480A1, “COMPOSITIONS AND METHODS FOR THE REDUCTION OR TREATMENT OF FIBROSIS” (AXCELLA HEALTH INC., priority 2018, published 2021).
# Tested on: Hsp47 gene expression, primary human hepatic stellate cells
# Assay: Hsp47 gene expression in TGFβ1-stimulated primary human hepatic stellate cells
# Assay type: cell-based
# Conditions: for Hsp47 Fold Expression Relative to Control, Mean: first donor, normalized to Gapdh, single amino acid; for Hsp47 gene expression: primary human hepatic stellate cells, three healthy donors, TGFβ1 3 ng/mL 24 h, summary in words
# Experimental: Primary human hepatic stellate cells were obtained from Samsara Sciences based on the following criteria for selecting donors: adult age (between 18 and 50 years), normal BMI (>18.5 and <25), and absence of confounding liver disease. Cells grown in Complete HSC Medium to ˜80% confluence in T75 or T150 flasks below passage 10 were seeded into sterile, collagen I coated, 96-well optical plastic microplates (ThermoScientific, 152036) at 6000 cells per well (1250 cells per cm2) and incubated overnight at 37° C., 5% CO2 in a humidified incubator in DMEM with 2% Fetal Bovine Serum and 1% Antibiotic-Antimycotic.
# After the overnight incubation, plates were removed from the incubator and the medium was gently pipetted off and washed twice with 150 μL per well DPBS. The DPBS was removed and the pretreatment medium (±single amino acid dropout, 1×HMDB DMEM+1% Antibiotic-Antimycotic, 10 mM HEPES, ±supplemental amino acid dose; see experiment for medium composition) was applied to the cells at 150 μL per well. Plates were returned to the incubator for 10.5 hours.
# After 10.5 hour pretreatment, the medium was removed from the cells, and the same pretreatment medium, now supplemented with 3 ng/mL TGFβ1, was applied. Each plate contained 3 ng/mL TGFβ1 in 1× human plasma amino acid (HMDB or PAA) concentration medium, 0 ng/mL in 1×HMDB, and 3 ng/mL TGFβ1+20 μM Silybin in 1×HMDB to serve as controls. Plates were then incubated for 24 hours at 37° C., 5% CO2.
# After 24 hour stimulus, supernatant was removed and frozen at −80° C. in two separate aliquots. The cells were then washed with 125 μL per well Buffer FCW (FastLane Cell Multiplex NR Kit, Qiagen, 216713). The wash buffer was immediately removed and 50 μL of Cell Processing Mix (containing genomic DNA Wipeout buffer) was applied to lyse cells, incubating for 10 minutes at room temperature. RNA lysate was then transferred to 96-well qPCR plates, sealed, and gDNA was digested on thermal cycler at 75° C. for 5 minutes. RNA lysate was frozen at −80° C.
# Each 20 μL one-step RT-qPCR reaction contained 4 μL of RNA lysate. Gene expression of Hsp47, and Gapdh were multiplexed using the HEX, and FAM fluorescent channels, respectively, with commercially available primer-probe mixes (the Human Hsp47 Primer-Probe Set, HEX; and the Human Gapdh Primer-Probe Set, FAM from IDT). Gene expression was evaluated using the ΔΔCq method within each single amino acid dropout and supplementation by normalizing to its own 1×HMDB concentration.
smiles,measurement,setting,value
"CC[C@H](C)[C@H](N)C(=O)O [ILE, isoleucine]","Hsp47 Fold Expression Relative to Control, normalized to Gapdh (Mean)","Table 38, second donor, 66 μM (baseline 1×HMDB concentration)",1.00 fold
same,"Hsp47 Fold Expression Relative to Control, normalized to Gapdh (Mean)","Table 38, second donor, 1328 μM",0.90 fold
same,"Hsp47 Fold Expression Relative to Control, normalized to Gapdh (Mean)","Table 38, second donor, 3320 μM",0.92 fold
same,"Hsp47 Fold Expression Relative to Control, normalized to Gapdh (Mean)","Table 38, second donor, 6639 μM",0.94 fold
same,"Hsp47 Fold Expression Relative to Control, normalized to Gapdh (Mean)","Table 40, second donor (so in the source), 66 μM (baseline 1×HMDB concentration)",1.00 fold
same,"Hsp47 Fold Expression Relative to Control, normalized to Gapdh (Mean)","Table 40, second donor (so in the source), 1328 μM",1.00 fold
same,"Hsp47 Fold Expression Relative to Control, normalized to Gapdh (Mean)","Table 40, second donor (so in the source), 3320 μM",0.98 fold
same,"Hsp47 Fold Expression Relative to Control, normalized to Gapdh (Mean)","Table 40, second donor (so in the source), 6639 μM",1.06 fold
same,"Hsp47 Fold Expression Relative to Control, Mean",66 μM (1X reference),1.00 fold
same,"Hsp47 Fold Expression Relative to Control, Mean",1328 μM,1.07 fold
same,"Hsp47 Fold Expression Relative to Control, Mean",3320 μM,1.22 fold
same,"Hsp47 Fold Expression Relative to Control, Mean",6639 μM,0.99 fold
same,Hsp47 gene expression,,did not significantly change
"CC(C)[C@H](N)C(=O)O [VAL, valine]","Hsp47 Fold Expression Relative to Control, normalized to Gapdh (Mean)","Table 38, second donor, 234 μM (baseline 1×HMDB concentration)",1.00 fold
same,"Hsp47 Fold Expression Relative to Control, normalized to Gapdh (Mean)","Table 38, second donor, 4684 μM",1.02 fold
same,"Hsp47 Fold Expression Relative to Control, normalized to Gapdh (Mean)","Table 38, second donor, 11710 μM",0.99 fold
same,"Hsp47 Fold Expression Relative to Control, normalized to Gapdh (Mean)","Table 38, second donor, 23420 μM",0.89 fold
same,"Hsp47 Fold Expression Relative to Control, normalized to Gapdh (Mean)","Table 40, second donor (so in the source), 234 μM (baseline 1×HMDB concentration)",1.00 fold
same,"Hsp47 Fold Expression Relative to Control, normalized to Gapdh (Mean)","Table 40, second donor (so in the source), 4684 μM",0.97 fold
same,"Hsp47 Fold Expression Relative to Control, normalized to Gapdh (Mean)","Table 40, second donor (so in the source), 11710 μM",0.95 fold
same,"Hsp47 Fold Expression Relative to Control, normalized to Gapdh (Mean)","Table 40, second donor (so in the source), 23420 μM",0.95 fold
same,"Hsp47 Fold Expression Relative to Control, Mean",234 μM (1X reference),1.00 fold
same,"Hsp47 Fold Expression Relative to Control, Mean",4684 μM,1.05 fold
same,"Hsp47 Fold Expression Relative to Control, Mean",11710 μM,1.05 fold
same,"Hsp47 Fold Expression Relative to Control, Mean",23420 μM,1.00 fold
same,Hsp47 gene expression,,did not significantly change
